{"source": "ChEMBL document CHEMBL1140602", "about": "“A simple, yet highly accurate, QSAR model captures the complement inhibitory activity of compstatin” (Bioorg Med Chem, 2007)", "note": "Positions of bridges follow the written chain, without caps; N, C: chain ends. Residues, ends and D or L forms follow the SMILES beside them.", "data": [{"test": "Inhibition of C3b activation relative to compstatin", "values": [{"smiles": "CC(C)[C@@H]1NC(=O)[C@H](C(C)C)NC(=O)[C@@H](N)CSSC[C@@H](C(=O)O)NC(=O)[C@H](C)NC(=O)[C@H](Cc2cnc[nH]2)NC(=O)[C@H](Cc2cnc[nH]2)NC(=O)CNC(=O)[C@H](Cc2c[nH]c3ccccc23)NC(=O)[C@H](CC(=O)O)NC(=O)[C@H](CCC(N)=O)NC1=O", "note": "(H-CVVQDWGHHAC-OH; disulfide 1-11)", "logIC50": -0.767}, {"smiles": "CC(C)[C@@H]1NC(=O)[C@H](C(C)C)NC(=O)[C@@H](N)CSSC[C@@H](C(N)=O)NC(=O)[C@H](CCCNC(=N)N)NC(=O)[C@H](Cc2cnc[nH]2)NC(=O)[C@H](Cc2cnc[nH]2)NC(=O)CNC(=O)[C@H](Cc2c[nH]c3ccccc23)NC(=O)[C@H](CC(=O)O)NC(=O)[C@H](CCC(N)=O)NC1=O", "note": "(H-CVVQDWGHHRC-NH2; disulfide 1-11)", "logIC50": -0.439}, {"smiles": "CC(C)[C@@H]1NC(=O)[C@H](C(C)C)NC(=O)[C@@H](N)CSSC[C@@H](C(=O)O)NC(=O)[C@H](CCCNC(=N)N)NC(=O)[C@H](Cc2cnc[nH]2)NC(=O)[C@H](Cc2cnc[nH]2)NC(=O)CNC(=O)[C@H](Cc2c[nH]c3ccccc23)NC(=O)[C@H](CC(=O)O)NC(=O)[C@H](CCC(N)=O)NC1=O", "note": "(H-CVVQDWGHHRC-OH; disulfide 1-11)", "logIC50": -0.439}, {"smiles": "CC(C)[C@@H]1NC(=O)[C@H](C(C)C)NC(=O)[C@@H](N)CSSC[C@@H](C(=O)N[C@H](C(N)=O)[C@@H](C)O)NC(=O)[C@H](CCCNC(=N)N)NC(=O)[C@H](Cc2cnc[nH]2)NC(=O)[C@H](Cc2cnc[nH]2)NC(=O)CNC(=O)[C@H](Cc2c[nH]c3ccccc23)NC(=O)[C@H](CC(=O)O)NC(=O)[C@H](CCC(N)=O)NC1=O", "note": "(H-CVVQDWGHHRCT-NH2; disulfide 1-11)", "logIC50": -0.319}, {"smiles": "CC(C)[C@@H]1NC(=O)[C@@H](NC(=O)[C@@H](N)CC(=O)O)CSSC[C@@H](C(=O)N[C@H](C(N)=O)[C@@H](C)O)NC(=O)[C@H](CCCCN)NC(=O)[C@H](Cc2cnc[nH]2)NC(=O)[C@H](Cc2cnc[nH]2)NC(=O)CNC(=O)[C@H](Cc2c[nH]c3ccccc23)NC(=O)[C@H](CC(=O)O)NC(=O)[C@H](CCC(N)=O)NC(=O)[C@H](C(C)C)NC1=O", "note": "(H-DCVVQDWGHHKCT-NH2; disulfide 2-12)", "logIC50": -0.264}, {"smiles": "CC[C@H](C)[C@H](N)C(=O)N[C@H]1CSSC[C@@H](C(=O)N[C@H](C(N)=O)[C@@H](C)O)NC(=O)[C@H](CCCCN)NC(=O)[C@H](Cc2cnc[nH]2)NC(=O)[C@H](Cc2cnc[nH]2)NC(=O)CNC(=O)[C@H](Cc2c[nH]c3ccccc23)NC(=O)[C@H](CC(=O)O)NC(=O)[C@H](CCC(N)=O)NC(=O)[C@H](C(C)C)NC(=O)[C@H](C(C)C)NC1=O", "note": "(H-ICVVQDWGHHKCT-NH2; disulfide 2-12)", "logIC50": -0.226}, {"smiles": "CC(C)C[C@H](N)C(=O)N[C@H]1CSSC[C@@H](C(=O)NCC(N)=O)NC(=O)[C@H](CCCNC(=N)N)NC(=O)[C@H](Cc2cnc[nH]2)NC(=O)[C@H](Cc2c[nH]c3ccccc23)NC(=O)CNC(=O)[C@H](Cc2c[nH]c3ccccc23)NC(=O)[C@H](CC(=O)O)NC(=O)[C@H](CCC(N)=O)NC(=O)[C@H](C(C)C)NC(=O)[C@H](C(C)C)NC1=O", "note": "(H-LCVVQDWGWHRCG-NH2; disulfide 2-12)", "logIC50": 0.617}, {"smiles": "CC(C)C[C@@H]1NC(=O)[C@H](CCCNC(=N)N)NC(=O)CNC(=O)[C@H](Cc2c[nH]c3ccccc23)NC(=O)[C@H](CC(=O)O)NC(=O)[C@H](CCC(N)=O)NC(=O)[C@H](Cc2ccccc2)NC(=O)[C@H](C(C)C)NC(=O)[C@@H](NC(=O)[C@@H](N)CO)CSSC[C@@H](C(=O)N2CCC[C@H]2C(N)=O)NC(=O)[C@H](C)NC1=O", "note": "(H-SCVFQDWGRLACP-NH2; disulfide 2-12)", "logIC50": -0.301}]}]}
